Laboratory results: ChEMBL document CHEMBL1144972, “Benzo[f]naphtyridones: a new family of topical antibacterial agents active on multi-resistant Gram-positive pathogens” (2003)
In brackets after ≈: the same amount, converted by molar mass.

Assays:
Type in all cases: functional
Staphylococcus aureus [1] = assay: Minimum inhibitory concentration against Staphylococcus aureus RN4220
Streptococcus pyogenes = assay: Minimum inhibitory concentration against Streptococcus pyogenes Dig 7
Staphylococcus aureus [2] = assay: Minimum inhibitory concentration against Staphylococcus aureus AS5155

MIC (Staphylococcus aureus [1]) [µg/mL]	MIC (Streptococcus pyogenes) [µg/mL]	MIC (Staphylococcus aureus [2]) [µg/mL]	SMILES
4 (≈ 8.61 µM)	16 (≈ 34.4 µM)	2 (≈ 4.31 µM)	Cc1ccc(N2CCN(c3ccc4c(ncc5c4c(=O)c(C(=O)O)cn5C)c3F)CC2)cc1F
1 (≈ 2 µM)	2 (≈ 4.01 µM)	1 (≈ 2 µM)	Cc1ccc(N2CCN(c3cc4c(ncc5c4c(=O)c(C(=O)O)cn5C)c(F)c3Cl)CC2)cc1F
2 (≈ 3.85 µM)	16 (≈ 30.8 µM)	1 (≈ 1.93 µM)	Cn1cc(C(=O)O)c(=O)c2c3cc(N4CCN(c5ccc(Cl)c(F)c5)CC4)c(Cl)c(F)c3ncc21
2 (≈ 4.72 µM)	4 (≈ 9.45 µM)	2 (≈ 4.72 µM)	Cn1cc(C(=O)O)c(=O)c2c3cc(N4C[C@@]5(C)C[C@@H]4CC(C)(C)C5)c(F)cc3ncc21
2 (≈ 4 µM)	16 (≈ 32 µM)	4 (≈ 7.99 µM)	Cn1cc(C(=O)O)c(=O)c2c3ccc(F)c(N4CCN(c5cccc(C(F)(F)F)c5)CC4)c3ncc21
0.25	0.5	2	C[N+](C)(C)CCO.Cn1cc(C(=O)[O-])c(=O)c2cc3cc(F)c(N4CCN(c5ccc(F)cc5)CC4)cc3nc21
0.5 (≈ 0.999 µM)	0.12 (≈ 0.24 µM)	1 (≈ 2 µM)	C/C(=C\C(=O)OCCCCCCCCC(=O)O)C[C@@H]1OC[C@H](C[C@@H]2O[C@H]2[C@@H](C)[C@H](C)O)[C@@H](O)[C@H]1O [MUPIROCIN]
4 (≈ 10.4 µM)	4 (≈ 10.4 µM)	4 (≈ 10.4 µM)	Cn1cc(C(=O)O)c(=O)c2c3cc(F)c(N4CCCC(C)(C)C4)cc3ncc21

SMILES	MIC (Staphylococcus aureus [1]) [µg/mL]	MIC (Streptococcus pyogenes) [µg/mL]	MIC (Staphylococcus aureus [2]) [µg/mL]
CCn1cc(C(=O)O)c(=O)c2cc(F)c(N3CCN(C)CC3)cc21 [PEFLOXACIN]	0.5 (≈ 1.5 µM)	8 (≈ 24 µM)	64 (≈ 192 µM)
